# Experimental data: US20090281166A1, “Treatment of Cancer by Inhibition of HSP27” (THE UNIVERSITY OF BRITISH COLUMBIA, priority 2008, published 2009)
# Key:
# PC-3 cells = test: Combination treatment with siHsp27 and LY-294002 in PC-3 cells; assay type: cell-based, human
# Procedure: LY-294002 (2-(4-morpholinyl)-8-phenyl-4H-1-benzopyran-4-one) is a selective phosphatidylinositol 3-kinase (PI3K) inhibitor. Combination treatment with siHsp27 and LY-294002 treatment was assessed in PC-3 cells.
# hsp27 [1] = settings: Tanaka et al., Int J Gynecol Cancer 2004; cited from earlier work
# Hsp27 [2] = settings: preclinical studies, cited from earlier work
# Akt = test: Western blot after siAkt or GSK690693C treatment in LNCaP cells; assay type: cell-based, human
# Procedure: Twenty-four hours after culturing in 10 cm dishes at 7×10^5 cells per dish, Hsp27 siRNA (siHsp27) or scrambled siRNA (Scr) duplexes were transfected into cells. Briefly, the RNA duplex was diluted in Opti-MEN® serum-free medium and Oligofectamin (Invitrogen-Life Technologies). After 20 min, cells were transfected at 37? for 4-6 h and then were placed in standard medium. Forty-eight hours after transfection, cells were harvested and were analyzed in each experiment. To knockdown Akt, Akt1 siRNA (siAkt) duplexes (Cell signaling) were used. Twenty-four hours after transfection for 24 h, cells were harvested and then were analyzed as well. An siRNA duplex corresponding to the human Hsp27 site (sequence of one strand 5′-[…]-3′, SEQ ID NO: 2; Dharmacon, Lafayette, Colo.) was used. […]
# Proteins (20-40 μg/lane) extracted in RIPA buffer from cells, were electrophoresed in SDS-polyacrylamide gels (SDS/PAGE) and transferred to PDVF membranes (Milipore, Bedford, Mass.) by a wet transfer method. […] Bands were detected by using an enhanced chemiluminescence Western blotting analysis system (Amersham Life Science, Arlington Heights, Ill.).
# LNCaPHsp27 and LNCaP with empty vector (LNCaPmock) cells were assessed 24 h after culture. Cell lysates were collected 24 hours after culture and bands were detected with the indicated antibodies by Western blot assay. […]
compound,measurement,setting,value
"O=c1cc(N2CCOCC2)oc2c(-c3ccccc3)cccc12 [LY-294002, 2-(4-morpholinyl)-8-phenyl-4H-1-benzopyran-4-one]",PTEN expression,PC-3 cells,reduced PTEN expression
same,effect on growth inhibition by Hsp27 knockdown,PC-3 cells; combination with siHsp27,reduced the growth inhibitory effect by Hsp27 knockdown in dose-dependent manner
CC(=O)O[C@H]1C(=O)[C@@]2(C)[C@H]([C@H](OC(=O)c3ccccc3)[C@]3(O)C[C@H](OC(=O)[C@H](O)[C@@H](NC(=O)c4ccccc4)c4ccccc4)C(C)=C1C3(C)C)[C@]1(OC(C)=O)CO[C@@H]1C[C@@H]2O [Paclitaxel],hsp27 expression,hsp27 [1],inhibitor of hsp27 expression
"OGX-427: antisense oligonucleotide targeting hsp27, gggacgcggc gctcggtcat, SEQ ID No. 1, described in U.S. Pat. No. 7,101,991 (antisense GGGACGCGGCGCTCGGTCAT; listed as DNA, chemistry not given here; listed as Homo sapiens)",chemosensitization,Hsp27 [2]; combination with cytotoxic drugs,acts as a chemosensitizer in combination with several cytotoxic drugs including docetaxel
same,anti-tumor activity,Hsp27 [2]; single agent,has single agent anti-tumor activity
same,apoptosis in human cancer cell lines,Hsp27 [2],induces apoptosis in several human cancer cell lines
same,levels of Hsp27,Hsp27 [2],significantly decreases levels of Hsp27
CCn1c(-c2nonc2N)nc2c(C#CC(C)(C)O)ncc(OC[C@H]3CCCNC3)c21 [GSK690693C],phospho-Akt level (Western blot),Akt,up-regulation of phospho-Akt
same,phospho-GSK-3B and phospho-PEA15 levels (Western blot),Akt,dose-dependent decrease of phospho-GSK-3B and phospho-PEA15
